Assay results taken from patent US20080269282A1, “Compounds for Inhibiting Copper-Containing Amine Oxidases and Uses Thereof” (GENMEDICA THERAPEUTICS SL, priority 2004, published 2008).

Target: T1, Human SSAO (Homo sapiens, UniProt Q16853)
T1 construct: Human or mice adipose tissue homogenates, used as a source of SSAO activity; from tissue; host or cells: human adipose tissue homogenate
T1 sequence (Q16853 1-763): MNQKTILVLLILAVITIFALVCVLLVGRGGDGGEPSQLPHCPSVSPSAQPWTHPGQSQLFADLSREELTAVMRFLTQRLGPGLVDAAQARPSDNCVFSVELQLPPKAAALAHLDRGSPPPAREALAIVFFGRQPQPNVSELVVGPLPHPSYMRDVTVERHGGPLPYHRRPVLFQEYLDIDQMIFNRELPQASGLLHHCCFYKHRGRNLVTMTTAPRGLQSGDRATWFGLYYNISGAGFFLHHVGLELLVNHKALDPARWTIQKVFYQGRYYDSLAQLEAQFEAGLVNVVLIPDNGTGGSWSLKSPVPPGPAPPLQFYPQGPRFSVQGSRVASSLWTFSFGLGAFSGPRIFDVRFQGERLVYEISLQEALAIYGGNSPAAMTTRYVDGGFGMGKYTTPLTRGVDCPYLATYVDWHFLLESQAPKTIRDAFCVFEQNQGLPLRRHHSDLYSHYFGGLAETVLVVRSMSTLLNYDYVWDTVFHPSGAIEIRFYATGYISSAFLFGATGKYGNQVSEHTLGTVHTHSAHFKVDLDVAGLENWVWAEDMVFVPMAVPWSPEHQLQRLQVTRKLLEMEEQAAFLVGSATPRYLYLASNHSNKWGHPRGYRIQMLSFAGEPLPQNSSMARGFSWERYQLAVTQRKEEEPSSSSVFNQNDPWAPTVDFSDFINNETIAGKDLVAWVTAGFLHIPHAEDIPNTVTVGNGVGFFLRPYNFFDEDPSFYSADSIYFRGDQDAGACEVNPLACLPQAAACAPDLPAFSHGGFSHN
Assay: SSAO activity determination (Amplex Red/HRP detection of H2O2 from benzylamine oxidation)
Format: biochemical
Conditions: human adipose tissue homogenate, benzylamine substrate, 37° C., 20 min preincubation
Procedure: SSAO activity determination: All assays were performed at 37° C. with SSAO from human or mice adipose tissue. The enzyme activity was measured through detection of hydrogen peroxide formed by the oxidation of benzylamine. This method is based on the horseradish peroxidase catalyzed hydrogen peroxide oxidation of 10-acetyl-3,7-dihydroxyphenoxazine (Molecular Probes A-6550), that produces resorufin a highly fluorescent product (excitation, 545 nm; emission, 590 nm) (Zhou and Panchuk-Voloshina, 1997). Human or mice adipose tissue homogenates, used as a source of SSAO activity, were preincubated in 96 well microplates for 20 min at 37° C. in 180 μL of 200 mM Phosphate buffer and H2O2-detecting mixture containing horseradish peroxidase (final concentration 1 U/mL) and Amplex Red reagent (60 μM) and different concentrations of inhibitors when necessary. […] Fluorescence intensity of the samples was measured continuously during 1 h (excitation, 545 nm; emission, 590 nm) and H2O2 concentration was calculated from calibration curves generated by serial dilutions of standard H2O2. […]
The inhibition was measured as % decrease of the signal compared to a control without inhibitor. Blank values in absence of substrates were subtracted from the fluorescence for each experimental condition. The IC50 shown in Table 1 were calculated with GraphPad Prism 4 program.

- IC50: 0.033 ± 0.006 µM
SMILES: Cc1[nH]c2ccccc2c1CC(=O)NCC(=O)NO [compound 4]
